Laboratory results published in PubChem BioAssay (NCI).
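These data come from cells grown in 96-well plates and exposed to compound for 48 hours at five concentrations. GI50: concentration for 50% inhibition of growth. TGI: total growth inhibition.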

Tests used:
Test in all cases: NCI tumour cell line growth inhibition, 48 h
OVCAR-8 ovarian = tested on: OVCAR-8 ovarian
NCI/ADR-RES ovarian = tested on: NCI/ADR-RES ovarian
786-0 renal = tested on: 786-0 renal
EKVX NSCLC = tested on: EKVX NSCLC
SNB-19 CNS = tested on: SNB-19 CNS
M14 melanoma = tested on: M14 melanoma
K-562 leukemia = tested on: K-562 leukemia
SK-OV-3 ovarian = tested on: SK-OV-3 ovarian
BT-549 breast = tested on: BT-549 breast
MDA-MB-435 = tested on: MDA-MB-435

Compound	GI50 (OVCAR-8 ovarian)	TGI (OVCAR-8 ovarian)	GI50 (NCI/ADR-RES ovarian)	TGI (NCI/ADR-RES ovarian)	GI50 (786-0 renal)	TGI (786-0 renal)	GI50 (EKVX NSCLC)	TGI (EKVX NSCLC)	GI50 (SNB-19 CNS)	TGI (SNB-19 CNS)	GI50 (M14 melanoma)	TGI (M14 melanoma)	GI50 (K-562 leukemia)	TGI (K-562 leukemia)	GI50 (SK-OV-3 ovarian)	TGI (SK-OV-3 ovarian)	GI50 (BT-549 breast)	TGI (BT-549 breast)	GI50 (MDA-MB-435)	TGI (MDA-MB-435)
C=CC(=O)Nc1cccc(Nc2nc(Nc3ccc(OCCOC(F)F)cc3)ncc2F)c1	3.33 µM	19.4 µM	2.48 µM	19.7 µM	1.32 µM	12.1 µM	4.3 µM	> 100 µM	5.6 µM	> 100 µM	2.54 µM	18.8 µM	3.07 µM	> 100 µM	0.706 µM	3.34 µM	1.36 µM	11.6 µM	2.21 µM	7.22 µM
COc1ccc(C(=O)C[C@]2(O)C(=O)Nc3c(Cl)ccc(Cl)c32)cc1	0.92 µM	> 77.3 µM	0.379 µM	–	2.61 µM	> 100 µM	0.892 µM	> 100 µM	1.05 µM	> 100 µM	0.321 µM	> 100 µM	0.258 µM	> 100 µM	1.89 µM	> 100 µM	0.59 µM	> 72.9 µM	0.128 µM	0.396 µM
CCCCCCCCCCCCCCCCS(=O)(=O)c1ccc(NN)cc1	–	> 10 µM	–	> 10 µM	–	> 10 µM	–	> 10 µM	–	> 10 µM	–	> 10 µM	–	> 10 µM	–	> 10 µM	–	> 10 µM	–	> 10 µM
O=c1[nH]c2cc(Cl)c(Cl)cc2n2cc3ccccc3c12	18.4 µM	32.4 µM	17.7 µM	31.6 µM	24.9 µM	39.6 µM	21.9 µM	43.5 µM	21.6 µM	56.6 µM	23 µM	39.7 µM	–	–	18 µM	33.1 µM	26.5 µM	57.2 µM	16.9 µM	30.5 µM
CCOCNc1ccc(N2C(=O)/C(=C/c3ccc(N(CC)CC)cc3)N=C2c2ccccc2)cc1	10.8 µM	> 100 µM	33.9 µM	> 100 µM	5.64 µM	22.9 µM	> 100 µM	> 100 µM	7.57 µM	55.3 µM	> 100 µM	> 100 µM	2.87 µM	> 100 µM	26.1 µM	82.9 µM	33.5 µM	> 100 µM	69.1 µM	> 100 µM
COc1cc2cc(Oc3ccc(NC(=O)c4cccc5c4OCCO5)cc3)c(C)nc2cc1OC	3.68 µM	29.8 µM	3.42 µM	> 100 µM	4.7 µM	> 100 µM	5.32 µM	> 100 µM	15.5 µM	> 100 µM	4.9 µM	> 100 µM	4.81 µM	> 100 µM	49.8 µM	> 100 µM	1.71 µM	4.42 µM	7.05 µM	> 100 µM
COc1ccccc1/C=C\C(=O)c1ccccc1	4.21 µM	15 µM	4.38 µM	24.3 µM	15 µM	28.4 µM	3.82 µM	18.3 µM	4.38 µM	16.7 µM	12.5 µM	25.6 µM	2.57 µM	13.9 µM	13.7 µM	26.5 µM	11 µM	23.3 µM	4.27 µM	16.5 µM
